In US20260234124A1, “Substituted Pyrazolyl-Pyridinyl Compounds as Ligand Directed Degraders of IRAK3” (Celgene Corporation, priority 2022, published 2026):

Target: T1, IRAK3 (Homo sapiens, UniProt Q9Y616)
T1 sequence (Q9Y616 1-596): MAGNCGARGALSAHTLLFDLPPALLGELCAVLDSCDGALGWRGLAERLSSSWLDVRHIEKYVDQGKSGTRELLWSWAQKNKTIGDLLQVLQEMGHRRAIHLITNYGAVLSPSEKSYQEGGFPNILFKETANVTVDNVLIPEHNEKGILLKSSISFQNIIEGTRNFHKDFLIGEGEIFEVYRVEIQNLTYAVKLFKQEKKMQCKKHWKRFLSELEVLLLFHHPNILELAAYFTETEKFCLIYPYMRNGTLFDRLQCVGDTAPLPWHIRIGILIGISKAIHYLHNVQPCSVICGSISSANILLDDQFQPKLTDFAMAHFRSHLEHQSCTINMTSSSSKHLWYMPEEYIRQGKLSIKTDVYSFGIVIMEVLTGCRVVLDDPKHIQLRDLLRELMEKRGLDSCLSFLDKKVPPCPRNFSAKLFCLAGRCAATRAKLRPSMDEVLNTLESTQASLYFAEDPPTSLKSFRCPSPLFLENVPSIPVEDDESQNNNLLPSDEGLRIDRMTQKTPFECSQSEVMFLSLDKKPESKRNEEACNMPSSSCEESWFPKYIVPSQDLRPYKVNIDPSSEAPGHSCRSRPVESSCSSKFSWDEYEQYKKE
Experiment: IRAK endogenous HTRF degradation assay (Total-IRAK3 HTRF kit)
Assay type: cell-based
Set-up: IRAK Endogenous HTRF Degradation Assay; endogenous in cells
Conditions: endogenous IRAK3, overnight incubation; % Dmax = 100 − Ymin
Experimental: Example B2. IRAK Endogenous HTRF Degradation Assay
Cells (~50k) were plated in Cisbio 96-well low volume white plates (Cisbio: cat #66PL96005). Compounds were dissolved in DMSO and a 3-fold serial dilution was performed using a TECAN D300E. Cells were incubated with the compound overnight. Total-IRAK3 HTRF kit from Cisbio was used for degradation analysis (Cisbio: 63ADK101PEH). Cryptate and D2 antibodies were diluted in Detection buffer as per manufacturers recommendation. Then 2 μL of each solution was added to 16 μL lysate. Buffer control (lysis buffer detection buffer), Cryptate control (lysis buffer+cryptate antibody+detection buffer), and Negative control (lysis buffer+cryptate antibody+D2 antibody) were made as per manufacturers recommendation. Post incubation with antibodies the HTRF signal was measured using a Perkin Elmer Envision reader and the HTRF signal was calculated using formula: (Emission at 665 nm/Emission at 615 nm)*10,000. All HTRF values were normalized to the average value of DMSO. The average value of the DMSO control wells were set to equal 100% of the relative IRAK3 protein levels. Normalized luminescence values were plotted on a graph as a function of compound concentration. Compound concentration was plotted on the x-axis and the corresponding normalized IRAK3 protein levels on the y-axis. The EC50 value (the half-maximum effective concentration) of a compound for the degradation of the IRAK3 was calculated using a four-parameter logistic model (sigmoidal dose-response model) (FIT=(A+{(B−A)/1+[(C/x)D]})) where C is the inflection point (EC50), D is the […], and A and B are the low and high limits of the fit, respectively). The Ymin was calculated by determining the lowest percentage of target protein remaining following compound treatment. Dmax was calculated from Ymin (% Dmax=100−Ymin).
Using these assays, IC50, Dmax, EC50, and DC50 values of the following compounds were determined. Dmax is defined as the maximum percent degradation achieved and DC50 is the concentration at which 50% degradation is achieved.

Structure (SMILES)	Dmax
C[C@@H](Oc1cc(-c2cnn(C3CCN(C4CCC5(CC4)CCN(C(=O)c4cccc6c4CN(C4CCC(=O)NC4=O)C6=O)CC5)CC3)c2)cnc1N)c1c(Cl)ccc(F)c1Cl (stereo partly drawn) [Compound 21, 3-(4-(9-(4-(4-(6-amino-5-((R)-1-(2,6-dichloro-3-fluorophenyl)ethoxy)pyridin-3-yl)-1H-pyrazol-1-yl)piperidin-1-yl)-3-azaspiro[5.5]undecane-3-carbonyl)-1-oxoisoindolin-2-yl)piperidine-2,6-dione]	68%
C[C@@H](Oc1cc(-c2cnn(C3CCN(CCNC(=O)COc4cccc5c4C(=O)N(C4CCC(=O)NC4=O)C5=O)CC3)c2)cnc1N)c1c(Cl)ccc(F)c1Cl (stereo partly drawn) [Compound 8, N-(2-(4-(4-(6-amino-5-((R)-1-(2,6-dichloro-3-fluorophenyl)ethoxy)pyridin-3-yl)-1H-pyrazol-1-yl)piperidin-1-yl)ethyl)-2-((2-(2,6-dioxopiperidin-3-yl)-1,3-dioxoisoindolin-4-yl)oxy)acetamide]	37%
C[C@@H](Oc1cc(-c2cnn(C3CCN(C4CCC5(CC4)CCN(C(=O)c4ccc6c(c4)C(=O)N(C4CCC(=O)NC4=O)C6)CC5)CC3)c2)cnc1N)c1c(Cl)ccc(F)c1Cl (stereo partly drawn) [Compound 19, 3-(6-(9-(4-(4-(6-amino-5-((R)-1-(2,6-dichloro-3-fluorophenyl)ethoxy)pyridin-3-yl)-1H-pyrazol-1-yl)piperidin-1-yl)-3-azaspiro[5.5]undecane-3-carbonyl)-1-oxoisoindolin-2-yl)piperidine-2,6-dione]	42%
Cc1ncsc1-c1ccc(CNC(=O)[C@@H]2C[C@@H](O)CN2C(=O)[C@@H](NC(=O)CCCN2CCC(n3cc(-c4cnc(N)c(O[C@H](C)c5c(Cl)ccc(F)c5Cl)c4)cn3)CC2)C(C)(C)C)cc1 [Compound 1, (2S,4R)-1-((S)-2-(4-(4-(4-(6-amino-5-((R)-1-(2,6-dichloro-3-fluorophenyl)ethoxy)pyridin-3-yl)-1H-pyrazol-1-yl)piperidin-1-yl)butanamido)-3,3-dimethylbutanoyl)-4-hydroxy-N-(4-(4-methylthiazol-5-yl)benzyl)pyrrolidine-2-carboxamide]	41%
C[C@@H](Oc1cc(-c2cnn(C3CCN(C4CCC5(CC4)CCN(C(=O)c4cccc(NC6CCC(=O)NC6=O)c4)CC5)CC3)c2)cnc1N)c1c(Cl)ccc(F)c1Cl (stereo partly drawn) [Compound 22, 3-((3-(9-(4-(4-(6-Amino-5-((R)-1-(2,6-dichloro-3-fluorophenyl)ethoxy)pyridin-3-yl)-1H-pyrazol-1-yl)piperidin-1-yl)-3-azaspiro[5.5]undecane-3-carbonyl)phenyl)amino)piperidine-2,6-dione]	81%
C[C@@H](Oc1cc(-c2cnn(C3CCN(CCOCCOCCNC(=O)COc4ccc5c(c4)C(=O)N(C4CCC(=O)NC4=O)C5=O)CC3)c2)cnc1N)c1c(Cl)ccc(F)c1Cl (stereo partly drawn) [Compound 15, N-(2-(2-(2-(4-(4-(6-amino-5-((R)-1-(2,6-dichloro-3-fluorophenyl)ethoxy)pyridin-3-yl)-1H-pyrazol-1-yl)piperidin-1-yl)ethoxy)ethoxy)ethyl)-2-((2-(2,6-dioxopiperidin-3-yl)-1,3-dioxoisoindolin-5-yl)oxy)acetamide]	20%
C[C@@H](Oc1cc(-c2cnn(C3CCN(C4CCC5(CC4)CCN(C(=O)c4ccc6c(c4)CN(C4CCC(=O)NC4=O)C6=O)CC5)CC3)c2)cnc1N)c1c(Cl)ccc(F)c1Cl (stereo partly drawn) [Compound 20, 3-(5-(9-(4-(4-(6-amino-5-((R)-1-(2,6-dichloro-3-fluorophenyl)ethoxy)pyridin-3-yl)-1H-pyrazol-1-yl)piperidin-1-yl)-3-azaspiro[5.5]undecane-3-carbonyl)-1-oxoisoindolin-2-yl)piperidine-2,6-dione]	73%
C[C@@H](Oc1cc(-c2cnn(C3CCN(CCOCCOCCOCCOCCNC(=O)COc4ccc5c(c4)C(=O)N(C4CCC(=O)NC4=O)C5=O)CC3)c2)cnc1N)c1c(Cl)ccc(F)c1Cl (stereo partly drawn) [Compound 17, N-(14-(4-(4-(6-amino-5-((R)-1-(2,6-dichloro-3-fluorophenyl)ethoxy)pyridin-3-yl)-1H-pyrazol-1-yl)piperidin-1-yl)-3,6,9,12-tetraoxatetradecyl)-2-((2-(2,6-dioxopiperidin-3-yl)-1,3-dioxoisoindolin-5-yl)oxy)acetamide]	32%
C[C@@H](Oc1cc(-c2cnn(C3CCN(CCOCCOCCOCCNC(=O)COc4ccc5c(c4)C(=O)N(C4CCC(=O)NC4=O)C5=O)CC3)c2)cnc1N)c1c(Cl)ccc(F)c1Cl (stereo partly drawn) [Compound 16, N-(2-(2-(2-(2-(4-(4-(6-amino-5-((R)-1-(2,6-dichloro-3-fluorophenyl)ethoxy)pyridin-3-yl)-1H-pyrazol-1-yl)piperidin-1-yl)ethoxy)ethoxy)ethoxy)ethyl)-2-((2-(2,6-dioxopiperidin-3-yl)-1,3-dioxoisoindolin-5-yl)oxy)acetamide]	25%
C[C@@H](Oc1cc(-c2cnn(C3CCN(CCOCCOCCOCCNC(=O)COc4cccc5c4C(=O)N(C4CCC(=O)NC4=O)C5=O)CC3)c2)cnc1N)c1c(Cl)ccc(F)c1Cl (stereo partly drawn) [Compound 11, N-(2-(2-(2-(2-(4-(4-(6-amino-5-((R)-1-(2,6-dichloro-3-fluorophenyl)ethoxy)pyridin-3-yl)-1H-pyrazol-1-yl)piperidin-1-yl)ethoxy)ethoxy)ethoxy)ethyl)-2-((2-(2,6-dioxopiperidin-3-yl)-1,3-dioxoisoindolin-4-yl)oxy)acetamide]	38%
C[C@@H](Oc1cc(-c2cnn(C3CCN(CCOCCOCCOCCOCCNC(=O)COc4cccc5c4C(=O)N(C4CCC(=O)NC4=O)C5=O)CC3)c2)cnc1N)c1c(Cl)ccc(F)c1Cl (stereo partly drawn) [Compound 12, N-(14-(4-(4-(6-amino-5-((R)-1-(2,6-dichloro-3-fluorophenyl)ethoxy)pyridin-3-yl)-1H-pyrazol-1-yl)piperidin-1-yl)-3,6,9,12-tetraoxatetradecyl)-2-((2-(2,6-dioxopiperidin-3-yl)-1,3-dioxoisoindolin-4-yl)oxy)acetamide]	33%
C[C@@H](Oc1cc(-c2cnn(C3CCN(CCOCCNC(=O)COc4cccc5c4C(=O)N(C4CCC(=O)NC4=O)C5=O)CC3)c2)cnc1N)c1c(Cl)ccc(F)c1Cl (stereo partly drawn) [Compound 9, N-(2-(2-(4-(4-(6-amino-5-((R)-1-(2,6-dichloro-3-fluorophenyl)ethoxy)pyridin-3-yl)-1H-pyrazol-1-yl)piperidin-1-yl)ethoxy)ethyl)-2-((2-(2,6-dioxopiperidin-3-yl)-1,3-dioxoisoindolin-4-yl)oxy)acetamide]	23%
C[C@@H](Oc1cc(-c2cnn(C3CCN(CCOCCNC(=O)COc4ccc5c(c4)C(=O)N(C4CCC(=O)NC4=O)C5=O)CC3)c2)cnc1N)c1c(Cl)ccc(F)c1Cl (stereo partly drawn) [Compound 14, N-(2-(2-(4-(4-(6-amino-5-((R)-1-(2,6-dichloro-3-fluorophenyl)ethoxy)pyridin-3-yl)-1H-pyrazol-1-yl)piperidin-1-yl)ethoxy)ethyl)-2-((2-(2,6-dioxopiperidin-3-yl)-1,3-dioxoisoindolin-5-yl)oxy)acetamide]	3%
C[C@@H](Oc1cc(-c2cnn(C3CCN(C4CCC5(CC4)CCN(C(=O)c4ccc6c(c4)C(=O)N(C4CCC(=O)NC4=O)C6=O)CC5)CC3)c2)cnc1N)c1c(Cl)ccc(F)c1Cl (stereo partly drawn) [Compound 18, 5-(9-(4-(4-(6-amino-5-((R)-1-(2,6-dichloro-3-fluorophenyl)ethoxy)pyridin-3-yl)-1H-pyrazol-1-yl)piperidin-1-yl)-3-azaspiro[5.5]undecane-3-carbonyl)-2-(2,6-dioxopiperidin-3-yl)isoindoline-1,3-dione]	73%
Cc1ncsc1-c1ccc(CNC(=O)[C@@H]2C[C@@H](O)CN2C(=O)[C@@H](NC(=O)COCCOCCOCCN2CCC(n3cc(-c4cnc(N)c(O[C@H](C)c5c(Cl)ccc(F)c5Cl)c4)cn3)CC2)C(C)(C)C)cc1 [Compound 3, (2S,4R)-1-((S)-14-(4-(4-(6-amino-5-((R)-1-(2,6-dichloro-3-fluorophenyl)ethoxy)pyridin-3-yl)-1H-pyrazol-1-yl)piperidin-1-yl)-2-(tert-butyl)-4-oxo-6,9,12-trioxa-3-azatetradecanoyl)-4-hydroxy-N-(4-(4-methylthiazol-5-yl)benzyl)pyrrolidine-2-carboxamide]	42%
